Laboratory results taken from US12357596B2, “Compounds for prevention and treatment of obesity and related disorders” (ABREXA PHARMACEUTICALS, INC., priority 2019, dated 2025).

Experiment: 28-day once-daily oral gavage toxicity study with 14-day recovery (body weight, food consumption, clinical and anatomic pathology)
Assay type: in vivo
Conditions: for Decrease of group mean food consumption compared to Group 1 controls: Days 21 to 28
Experimental: J147 or vehicle was administered once daily to Sprague-Dawley rats via oral gavage for 28 consecutive days at a daily dose of 0, 30, 100 or 300 mg/kg. J174 was prepared in a vehicle formulation comprising 5% ethanol, 5% DMSO and 90% corn oil (v/v/v). Certified rodent diet and water was available ad libitum. Groups 1-4 contained 10 animals/sex/group. Groups 1 (control) and 4 (high dose) also included an additional 5 animals/sex/group for use as recovery animals. The recovery animals were maintained on study for a 14-day postdosing recovery period. Animals in Groups 1-4 were monitored for morbidity and mortality, clinical signs, detailed clinical observations, body weight, food consumption, ophthalmologic parameters, neurobehavioral assessment consisting of a Functional Observational Battery (FOB) and a motor activity test, hematology, coagulation, serum chemistry, and urinalysis parameters. Postmortem assessment included necropsy, measurement of selected organ weights, and microscopic evaluation of a standard set of tissues. Plasma samples for bioanalysis were collected on Days 1 and 28 from satellite toxicokinetic animals in Groups 5 through 8. Animals in these groups were euthanized following the last blood sampling and carcasses were discarded without examination. The study protocol is shown below in Table 1.

[1] = male rats, 30 mg/kg/day, Day 14 → 21
[2] = male rats, 30 mg/kg/day, Day 21 → 28
[3] = male rats, 30 mg/kg/day, Day −1 → 7
[4] = male rats, 100 mg/kg/day, Day 7 → 14
[5] = male rats, 100 mg/kg/day, Day 14 → 21
[6] = male rats, 100 mg/kg/day, Day 21 → 28
[7] = male rats, 100 mg/kg/day, Day 28
[8] = male rats, 100 mg/kg/day, Day −1 → 7
[9] = male rats, 300 mg/kg/day, Day 7 → 14
[10] = male rats, 300 mg/kg/day, Day 14 → 21
[11] = male rats, 300 mg/kg/day, Day 21 → 28
[12] = male rats, 300 mg/kg/day, Day 28
[13] = male rats, 300 mg/kg/day, Day −1 → 7
[14] = rats, both sexes, 300 mg/kg/day
[15] = rats, both sexes, 100 and 300 mg/kg/day

COc1cccc(/C=N/N(C(=O)C(F)(F)F)c2ccc(C)cc2C)c1 [J147]
Mean Bodyweight Gain [1]: 39.61 g
Mean Food Consumption [1]: 25.03
Mean Bodyweight (male rats, 30 mg/kg/day, Day 21): 430.90 g
Mean Bodyweight Gain [2]: 34.51 g
Mean Food Consumption [2]: 25.13
Mean Bodyweight (male rats, 30 mg/kg/day, Day 28): 465.41 g
Mean Bodyweight (male rats, 30 mg/kg/day, Day −1 (pre-dose)): 285.27 g
Mean Bodyweight Gain [3]: 53.64 g
Mean Food Consumption [3]: 23.90
Mean Bodyweight Gain (male rats, 30 mg/kg/day, Day −1 → 28): 180.14 g
Mean Bodyweight (male rats, 30 mg/kg/day, Day −2 (pre-dose)): 278.60 g
Mean Bodyweight (male rats, 100 mg/kg/day, Day 7): 335.34 g
Mean Bodyweight Gain [4]: 41.14 d^2 g
Mean Food Consumption [4]: 21.47 dd^2
Mean Bodyweight (male rats, 100 mg/kg/day, Day 14): 376.48 g
Mean Bodyweight Gain [5]: 33.50 g
Mean Food Consumption [5]: 23.65
Mean Bodyweight (male rats, 100 mg/kg/day, Day 21): 409.98 g
Mean Bodyweight Gain [6]: 26.89 g
Mean Food Consumption [6]: 23.73
Decrease of group mean body weight compared to Group 1 controls [7]: 5.9%
Mean Bodyweight [7]: 436.87 g
Mean Bodyweight (male rats, 100 mg/kg/day, Day −1 (pre-dose)): 286.67 g
Mean Bodyweight Gain [8]: 48.67 g
Mean Food Consumption [8]: 23.68
Mean Bodyweight Gain (male rats, 100 mg/kg/day, Day −1 → 28): 150.20 g
Mean Bodyweight (male rats, 100 mg/kg/day, Day −2 (pre-dose)): 278.57 g
Decrease of group mean food consumption compared to Group 1 controls (male rats, 100 mg/kg/day): 4.9%
Levels of urinary ketones (male rats, 300 mg/kg/day): increased
Mean Food Consumption (male rats, 300 mg/kg/day for 28 days, Day 28 → 35 (recovery)): 26.98
Mean Bodyweight Gain (male rats, 300 mg/kg/day for 28 days, Day 28 → 42 (recovery)): 50.60 g
Mean Bodyweight (male rats, 300 mg/kg/day for 28 days, Day 35 (recovery)): 415.68 dd^3 g
Mean Food Consumption (male rats, 300 mg/kg/day for 28 days, Day 35 → 42 (recovery)): 28.99
Mean Bodyweight (male rats, 300 mg/kg/day for 28 days, Day 42 (recovery)): 446.14 d^4 g
Mean Bodyweight (male rats, 300 mg/kg/day, Day 7): 321.93 dd^2 g
Mean Bodyweight Gain [9]: 28.89 dd^3 g
Mean Food Consumption [9]: 20.24 dd^2
Mean Bodyweight (male rats, 300 mg/kg/day, Day 14): 350.83 dd^2 g
Mean Bodyweight Gain [10]: 21.21 dd^3 g
Mean Food Consumption [10]: 21.50 dd^2
Mean Bodyweight (male rats, 300 mg/kg/day, Day 21): 372.04 dd^2 g
Mean Bodyweight Gain [11]: 16.71 dd^3 g
Mean Food Consumption [11]: 20.78 dd^2
Decrease of group mean body weight compared to Group 1 controls [12]: 16.2%
Mean Bodyweight [12]: 388.75 dd^2 g
Mean Bodyweight (male rats, 300 mg/kg/day, Day −1 (pre-dose)): 287.50 g
Mean Bodyweight Gain [13]: 34.43 dd^3 g
Mean Food Consumption [13]: 19.83 dd^2
Mean Bodyweight Gain (male rats, 300 mg/kg/day, Day −1 → 28): 101.25 dd^3 g
Mean Bodyweight (male rats, 300 mg/kg/day, Day −2 (pre-dose)): 278.97 g
Decrease of group mean food consumption compared to Group 1 controls (male rats, 300 mg/kg/day): 16.7%
Mean serum triglyceride concentrations (male rats, 100 and 300 mg/kg/day): Decreased
Group mean weight gain from Day −1 to 28 (male rats, Group 2 (30 mg/kg/day)): 180 grams
Group mean weight gain from Day −1 to 28 (male rats, Group 3 (100 mg/kg/day)): 150 grams
Group mean weight gain from Day −1 to 28 (male rats, Group 4 (300 mg/kg/day)): 101 grams
Effects on serum triglyceride concentrations and red cell mass at the end of the 14-day recovery period (rats previously administered 300 mg/kg/day for 28 days): persisted
Alterations considered related to test article administration (rats, 30 mg/kg/day): no alterations
Organ weight, macroscopic or microscopic findings after recovery (rats, 300 mg/kg/day, Day 43 following 2-week treatment-free recovery): no J147-related organ weight, macroscopic or microscopic findings
Recovery of body weight and body weight gain (rats, 14-day recovery period): Full recovery
Motor activity portion of the Functional Observational Battery (FOB) (rats, Day 1, males at all dose levels, females at 100 and 300 mg/kg/day, not considered adverse): general decrease in activity
Subacute perivascular inflammation in the liver (microscopic) [14]: noted
Thymic lymphoid depletion [14]: noted
lowest-observed-adverse-effect-level (LOAEL) (rats, both sexes, 28-day oral gavage): 100 mg/kg/day
Body weight, body weight gain, and food consumption [15]: decreased
Food consumption compared to Group 1 controls [15]: decreased
Group mean thymus weights [15]: Decreases
Hepatocellular hypertrophy (microscopic) [15]: seen
Prothrombin time (rats, both sexes, all dose levels): decreased
Mean platelet and reticulocyte counts (rats, end of 28-day treatment, all dose levels, both sexes): increased
Mean red blood cell counts, hematocrit, and hemoglobin values (rats, end of 28-day treatment, males at all dose levels, females at 100 and 300 mg/kg/day): decreased
Terminal necropsy findings (rats, one or two animals at 300 mg/kg/day): enlarged liver and small thymus
J147-related effects on body weight and food consumption following cessation of treatment (rats, recovery period): reversible
Noteworthy clinical observations during the 28-day treatment period (rats, some animals of both sexes, 300 mg/kg/day): soft feces
Incidence of single cell necrosis of acinar cells in the pancreas (rats, both sexes at 300 mg/kg/day, males at 100 mg/kg/day): increased
Mean serum glucose concentrations (rats, males at 100 mg/kg/day, both sexes at 300 mg/kg/day): Decreased
Group mean liver weights (rats, males at all dose levels, females at 100 and 300 mg/kg/day): increased
